Results as given in article PMC8617031, “Development of a BCL-xL and BCL-2 dual degrader with improved anti-leukemic activity,” (Nature Communications, 2021).
“And” between values parts separate entries of the source, which are not always exact repeats. Equal entries are not always repeated.

Experiments:
[1] = molecular target: T1, His-tagged BCL-2 (Homo sapiens, UniProt P10415); experiment: AlphaScreen competitive binary binding, BCL-2 (biotin-BIM peptide); details: for binary binding affinity to BCL-2 (in words): AlphaScreen, Supplementary Fig. 6
T1 construct: purchased Sigma-Aldrich SRP0186
Protocol: The reagents were diluted in a buffer containing 250 mM HEPES pH 7.5, 1 M NaCl, 1% BSA, and 0.05% Tween-80. His-tagged BCL-xL (0.5 nM, Cat. No. SRP0187, Sigma-Aldrich) or BCL-2 (1 nM, Cat. No. SRP0186, Sigma-Aldrich) were incubated with serial diluted 753a or 753b and 2 nM biotin-tagged BAD (biotin-[…] amino-terminal, AnaSpec, for BCL-xL) or 10 nM BIM peptides (biotin-[…] N-terminal, AnaSpec, for BCL-2) to a final volume of 40 µl in a 96-well PCR plate. […] After incubation for 2 h, 5 µl 6× His-acceptor beads (Cat. No. AL128M, PerkinElmer) were added to each well at 20 µg/ml final concentration and incubated for 1 h. Then 5 µl streptavidin-donor beads were added (Cat. No. 6760002, PerkinElmer) to each well at 20 µg/ml final concentration and incubated for 45 min. At the end of the incubation period, 17 µl of each sample was transferred in adjacent wells of 384-well proxy plate (Cat. No. 6008280, PerkinElmer). The plate was scanned using the Alpha program on Biotek’s Synergy Neo2 multimode plate reader. The inhibition constant (Ki) was calculated using the non-linear regression, one site, competitive binding, Fit Ki function on GraphPad Prism 9 software, based on experimentally determined dissociation constant (Kd) for each protein–peptide pair.

[2] = system: Hela cells; experiment: Viability (MTS) of Hela cells; assay type: cell-based, human; details: for cell viability normalised to control wells (single replicate): in % (unit assumed)
Protocol: (§1) Suspension cells were treated 30 min after seeding, whereas adherent cells were allowed to adhere overnight and were then treated. Compound treatments were prepared in complete cell culture medium and 100 µl of 2× treatment-containing medium were added to each well. Complete cell culture medium without treatment was added in control wells, and wells containing medium without cells served as background. The outer wells of the 96-well plate were not used for treatment and were filled with 250 µl of PBS to reduce evaporation of medium from inner wells. Each compound and/or combination was tested at nine different concentrations with three replicates. The cell viability was measured after 72 h by tetrazolium-based MTS assay. MTS reagent (2 mg ml^–1 stock; cat. no. G1111, Promega) was freshly supplemented with phenazine methosulfate (PMS, 0.92 mg ml^–1 stock, cat. no. P9625, Sigma-Aldrich) in 20:1 ratio, and 20 µl of this mixture was added to each control and treatment well. The cells were incubated for 4 h at 37 °C and 5% CO2, and then the absorbance was recorded at 490 nm using Biotek’s Synergy Neo2 multimode plate reader (Biotek). The average absorbance value of background wells was subtracted from absorbance value of each control and treatment well, and percent cell viability ((At/A0) × 100)) was determined in each treatment well, where At is the absorbance value of the treatment well and A0 is the average absorbance value of control wells after background subtraction. The data were expressed as average percentage cell viability and fitted in non-linear regression curves using GraphPad Prism 7 (GraphPad Software, La Jolla, CA, USA).

[3] = system: 293T cells; experiment: Viability (MTS) of 293T cells; assay type: cell-based, human; details: normalised to own plate; for 293T cell viability, MTS absorbance 490 as percent of untreated control, mean of three wells: mean of 3 wells
Protocol: as §1

[4] = BCL-2 Rep-2, plate row C, 1.25 uM
[5] = BCL-2 Rep-2, plate row D, 0.3125 uM
[6] = BCL-2 Rep-2, plate row E, 0.078125 uM
[7] = BCL-2 Rep-2, plate row F, 0.0195312 uM
[8] = BCL-2 Rep-2, plate row H, 0.0012207 uM
[9] = BCL-2 Rep-2, plate row I, 0.000305176 uM
[10] = BCL-2 Rep-2, plate row J, 7.62939e-5 uM
[11] = BCL-2 Rep-2, plate row K, 1.90735e-5 uM
[12] = MTS absorbance 490, Conc 0.00137174 uM
[13] = MTS absorbance 490, Conc 0.00411523 uM
[14] = MTS absorbance 490, Conc 0.037037 uM
[15] = MTS absorbance 490, Conc 0.111111 uM
[16] = MTS absorbance 490, Conc 0.333333 uM

T1 sequence (P10415 whole entry): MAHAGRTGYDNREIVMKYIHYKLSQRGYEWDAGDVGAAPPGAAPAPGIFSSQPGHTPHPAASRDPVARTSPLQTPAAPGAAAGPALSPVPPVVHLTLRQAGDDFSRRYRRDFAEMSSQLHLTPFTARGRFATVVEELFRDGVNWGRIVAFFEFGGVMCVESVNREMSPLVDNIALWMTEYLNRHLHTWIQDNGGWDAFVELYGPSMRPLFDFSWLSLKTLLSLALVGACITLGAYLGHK

For `Cc1ncsc1-c1ccc([C@H](C)NC(=O)[C@@H]2C[C@@H](O)CN2C(=O)[C@@H](NC(=O)CCCCCCC(=O)N2CCN(C[C@@]3(C)CCC(c4ccc(Cl)cc4)=C(CN4CCN(c5ccc(C(=O)NS(=O)(=O)c6ccc(N[C@H](CCN7CCOCC7)CSc7ccccc7)c(S(=O)(=O)C(F)(F)F)c6)cc5)CC4)C3)CC2)C(C)(C)C)cc1` [753a], the “binary binding affinity to BCL-2 (in words)” value [1] was “much weaker than that of the warhead ABT263”, the “Alpha signal (raw counts)” value ([1]; BCL-2 Rep-2, 0.00488281 uM) was 457099 and 452255 and the “Alpha signal (raw counts)” value [1, 4] was 11131 and 19293. The “Alpha signal (raw counts)” value [1, 5] was 23398 and 21436, the “Alpha signal (raw counts)” value [1, 6] was 28167 and 26661 and the “Alpha signal (raw counts)” value [1, 7] was 165828 and 146355. For the same molecule, the “Alpha signal (raw counts)” value [1, 8] was 607122 and 550701, the “Alpha signal (raw counts)” value [1, 9] was 723572 and 761986 and the “Alpha signal (raw counts)” value [1, 10] was 723255 and 767572. For the same molecule, the “Alpha signal (raw counts)” value [1, 11] was 723831 and 708342.
With `Cc1ncsc1-c1ccc([C@H](C)NC(=O)[C@@H]2C[C@@H](O)CN2C(=O)[C@@H](NC(=O)CCCCCCC(=O)N2CCN(C[C@]3(C)CCC(c4ccc(Cl)cc4)=C(CN4CCN(c5ccc(C(=O)NS(=O)(=O)c6ccc(N[C@H](CCN7CCOCC7)CSc7ccccc7)c(S(=O)(=O)C(F)(F)F)c6)cc5)CC4)C3)CC2)C(C)(C)C)cc1` [753b] the “cell viability normalised to control wells (mean of three replicates)” value [2, 12] was 101.835, the “cell viability normalised to control wells (single replicate)” value [2, 12] was 103.801 and 94.6965 and 107.009 and the “cell viability normalised to control wells (mean of three replicates)” value [2, 13] was 93.0491. The “cell viability normalised to control wells (single replicate)” value [2, 13] was 98.1647 and 87.1532 and 93.8295, the “cell viability normalised to control wells (mean of three replicates)” value [2, 14] was 95.159 and the “cell viability normalised to control wells (single replicate)” value [2, 14] was 94.6965 and 88.7139 and 102.066. For the same molecule, the “cell viability normalised to control wells (mean of three replicates)” value [2, 15] was 93.078, the “cell viability normalised to control wells (single replicate)” value [2, 15] was 90.1012 and 81.2572 and 107.876 and the “cell viability normalised to control wells (mean of three replicates)” value [2, 16] was 93.8295. For the same molecule, the “cell viability normalised to control wells (single replicate)” value [2, 16] was 79.8699 and 97.9913 and 103.627, the “cell viability normalised to control wells (mean of three replicates)” value ([2]; MTS absorbance 490, Conc 1 uM) was 89.5809 and the “cell viability normalised to control wells (single replicate)” value ([2]; MTS absorbance 490, Conc 1 uM) was 76.4884 and 93.6561 and 98.5983. The “cell viability normalised to control wells (mean of three replicates)” value ([2]; MTS absorbance 490, Conc 3 uM) was 87.6734, the “cell viability normalised to control wells (single replicate)” value ([2]; MTS absorbance 490, Conc 3 uM) was 75.7081 and 83.5116 and 103.801 and the “293T cell viability, MTS absorbance 490 as percent of untreated control, mean of three wells” value ([3]; 0.00137174 uM) was 105.831. The “293T cell viability, MTS absorbance 490 as percent of untreated control, single replicate well” value ([3]; 0.00137174 uM) was 104.459 and 107.926 and 105.109, the “293T cell viability, MTS absorbance 490 as percent of untreated control, mean of three wells” value ([3]; 0.00411523 uM) was 107.998 and the “293T cell viability, MTS absorbance 490 as percent of untreated control, single replicate well” value ([3]; 0.00411523 uM) was 111.934 and 109.117 and 102.943. For the same molecule, the “293T cell viability, MTS absorbance 490 as percent of untreated control, mean of three wells” value ([3]; 0.037037 uM) was 108.72, the “293T cell viability, MTS absorbance 490 as percent of untreated control, single replicate well” value ([3]; 0.037037 uM) was 111.175 and 116.05 and 98.9348 and the “293T cell viability, MTS absorbance 490 as percent of untreated control, mean of three wells” value ([3]; 0.111111 uM) was 112.8. The “293T cell viability, MTS absorbance 490 as percent of untreated control, single replicate well” value ([3]; 0.111111 uM) was 120.383 and 115.183 and 102.834, the “293T cell viability, MTS absorbance 490 as percent of untreated control, mean of three wells” value ([3]; 0.333333 uM) was 109.37 and the “293T cell viability, MTS absorbance 490 as percent of untreated control, single replicate well” value ([3]; 0.333333 uM) was 118.975 and 109.225 and 99.9097. For the same molecule, the “293T cell viability, MTS absorbance 490 as percent of untreated control, mean of three wells” value ([3]; 1 uM) was 114.606, the “293T cell viability, MTS absorbance 490 as percent of untreated control, single replicate well” value ([3]; 1 uM) was 117.133 and 117.566 and 109.117 and the “293T cell viability, MTS absorbance 490 as percent of untreated control, mean of three wells” value ([3]; 3 uM) was 79.3284. For the same molecule, the “293T cell viability, MTS absorbance 490 as percent of untreated control, single replicate well” value ([3]; 3 uM) was 74.5622 and 86.911 and 76.512, the “binary binding affinity to BCL-2 (in words)” value [1] was “much weaker than that of the warhead ABT263” and the “Alpha signal (raw counts)” value ([1]; BCL-2 Rep-2, 0.00488281 uM) was 394963 and 403008. The “Alpha signal (raw counts)” value ([1]; BCL-2 Rep-2, plate row B, 5 uM) was 11331 and 13334, the “Alpha signal (raw counts)” value [1, 4] was 13467 and 22674 and the “Alpha signal (raw counts)” value [1, 5] was 16676 and 24219. For the same molecule, the “Alpha signal (raw counts)” value [1, 6] was 24600 and 21594, the “Alpha signal (raw counts)” value [1, 7] was 68045 and the “Alpha signal (raw counts)” value ([1]; BCL-2 Rep-2, plate row F, 0.0195312 uM, listed as 753B) was 74511. The “Alpha signal (raw counts)” value [1, 8] was 630958 and 595808, the “Alpha signal (raw counts)” value [1, 9] was 751084 and 777257 and the “Alpha signal (raw counts)” value [1, 10] was 760517 and 786817. For the same molecule, the “Alpha signal (raw counts)” value [1, 11] was 880286 and 989418.
